Columns and labels:
SW480 cells = assay: Invasion through MATRIGEL coated membrane; assay type: cell-based, human; settings: 66 nM antibody, 10 ng/mL VEGF-A or 50 ng/mL VEGF-B, 48 hours, p<0.05, FIG. 24
Experimental: HT-29 cells (2.5×1 10^4) or SW480 cells (1.5×1 10^4) were incubated in medium containing 1% FBS with the anti-VEGFR-1 antibody 18F1 ([…]) 8.0-μm pore size membrane insert (Becton Dickinson Labware, Bedford, Mass.). The inserts were placed into lower chambers containing 10 ng/mL VEGF-A (R&D Systems) or 50 ng/mL VEGF-B (R&D Systems) for 48 hours. Cells remaining in the top chamber of the inserts were removed with a cotton swab. Cells migrating to the underside of the inserts were stained with Diff-Quik (Harleco, Gibbstown, N.J.) and counted in ten random fields at 100× magnification. Statistical analysis was performed using InStat Statistical Software (V2.03, GraphPad Software, San Diego, Calif.).

MDA-MB-231 xenograft = assay: MDA-MB-231 breast tumor xenograft; assay type: in vivo, mouse
Experimental: Mice in control groups received an equal volume of saline solution. Treatment of animals was continued for the duration of the experiment. Tumors were measured twice each week with calipers. Tumor volumes were calculated using the formula [π/6 (w1×w2×w2)], where “w1” represents the largest tumor diameter and “w2” represents the smallest tumor diameter. […] When tumors reached approximately 200-300 mm^3, mice were randomized by tumor size and divided into treatment groups. Tumor growth was evaluated approximately twice weekly, with tumor volume calculated as π/6* (Length*Width^2), where Length=longest diameter and Width=diameter perpendicular to Length. Tumor dimensions were measured with calipers. T/C % was calculated as 100*(Final Treatment Tumor Volume/Initial Treatment Tumor Volume)/(Final Control Tumor Volume/Initial Control Tumor Volume). […] The effect of treatment on tumor growth was analyzed using repeated measures analysis of variance (RM ANOVA), p<0.05 was considered significant. […] Antibody treatments administered at a constant dose per mouse were administered in a volume of 0.5 mL per mouse. Antibody and cytotoxic treatments administered at a dose proportional to body weight were given in a volume of 10 μL per gram body weight. […] AU treatments were administered i.p. The effect of treatments on tumor growth were analyzed using repeated measures analysis of variance (RM ANOVA), p<0.05 was considered significant.

DU4475 xenograft = assay: DU4475 breast tumor xenograft; assay type: in vivo, mouse
Experimental: Athymic nude mice (Charles River Laboratories, Wilmington, Mass.) were injected subcutaneously in the left flank area with 2×10^6 of DU4475 cells or 5×10^6 of MDA-MB-231 and MDA-MB-435 cells mixed in Matrigel (Collaborative Research Biochemicals. Bedford, Mass.). In the DU4475 and MDA-MB-231 models, tumors were allowed to reach approximately 200 mm^3 in size and then mice were randomized into groups of 12-16 animals per group. Animals received i.p. administration of the anti-VEGFR-I antibody clones 6F9, 15F11, or 18F1 at a dose of 0.5 mg (MDA-MB-231) or 1 mg (DU4475) three times each week. In the MDA-MB-435 model, the tumor cells were implanted subcutaneously into mammary fat pad area in the mouse. After tumors grew to reach approximately 200 mm^3 in size, mice were randomized into groups of 15 animals per group and intraperitoneally administered with 0.5 mg per dose of 18F1 antibody three times each week. Mice in control groups received an equal volume of saline solution. Treatment of animals was continued for the duration of the experiment. Tumors were measured twice each week with calipers. Tumor volumes were calculated using the formula [π/6 (w1×w2×w2)], where “w1” represents the largest tumor diameter and “w2” represents the smallest tumor diameter. Female athymic nu/nu mice, 6-8 weeks of age, were injected subcutaneously on the lateral dorsal surface with 0.4 mL volume of a suspension containing a human tumor cell line in media, diluted 1:1 with MATRIGEL™ (BD Biosciences). The cell lines used in xenograft models, with the cell doses indicated in parenthesis (10^6 cells/mouse), were: human colon carcinoma cell lines DLD-I (5), GEO (5) and HT-29 (5); human breast carcinoma cell lines DU4475 (2), MDA-MB-231 (5), MDA-MB-435 (5), and BT474 (5). When tumors reached approximately 200-300 mm^3, mice were randomized by tumor size and divided into treatment groups. Tumor growth was evaluated approximately twice weekly, with tumor volume calculated as π/6* (Length*Width^2), where Length=longest diameter and Width=diameter perpendicular to Length. Tumor dimensions were measured with calipers. T/C % was calculated as 100*(Final Treatment Tumor Volume/Initial Treatment Tumor Volume)/(Final Control Tumor Volume/Initial Control Tumor Volume). 18F1 was diluted in 0.9% USP saline (Braun) or phosphate buffered saline (PBS) and administered intraperitoneally in a volume of 0.5 mL per mouse. The effect of treatment on tumor growth was analyzed using repeated measures analysis of variance (RM ANOVA), p<0.05 was considered significant. 18F1 was used in combination with an antibody to mouse VEGFR-I, MF1. […] AU treatments were administered i.p. The effect of treatments on tumor growth were analyzed using repeated measures analysis of variance (RM ANOVA), p<0.05 was considered significant.

Akt = Akt phosphorylation Western blot, BT474 cells; assay type: cell-based, human; settings: BT474 breast cancer cells, FIG. 15
Experimental: Autophosphorylation of the VEGFR-I induced by its ligands and resulting activation of a classical MAPK, extracellular signal-regulated protein kinases 1Z2 (ERK1Z2) and the PBK/Atk downstrean signaling pathways mediate cellular biological responses such as proliferation, motility, survival, and differentiation. The ability of an anti-VEGFR-1 antibody to inhibit phosphorylation of VEGFR-I and activation of ERK1 Z2 and the Akt kinases downstream signaling were determined by using the PAE-VEGFR-I transfectant and BT474 breast carcinoma cells.
For evaluation of MAPK and Akt phosphorylation, BT474 cells were seeded at a density of 5×10^5/well in 12 well plates in serum-free conditions for 18 hours. Cells were treated at 37° C. with anti-VEGFR-1 antibody clone 18F1 or isotype control for 1 hour and then incubated with 50 ng/ml of VEGF or 100 ng/ml of PlGF for 5-10 minutes. Cell lysis, protein isolation and electroblotting were performed. Membranes were incubated with antibodies against phosphorylated p44/p42 MAP kinases (Thr202/Tyr204, Santa Cruz Biotechnology, Santa Cruz, Calif.) or phosphorylated Akt (Ser473, Cell Signaling Technology, Beverly, Mass.), at a concentration of 1 μg/ml, followed by incubation with a secondary IgG-HRP (1:5000). […]

Substance: 18F1: human anti-VEGFR-1 monoclonal antibody clone; VL SEQ ID NO: 16, VH SEQ ID NO: 20 [Clone 18F1]
- VEGFR-I ligand induced invasion (SW480 cells): completely blocked
- tumor growth of the MDA-MB-231 xenograft (MDA-MB-231 xenograft; 0.5 or 1 mg per dose three times each week, ANOVA p<0.05, FIG. 20B): statistically significant suppression
- growth of MDA-MB-231 xenograft tumors (MDA-MB-231 xenograft; Example 9, intraperitoneal, p<0.05): significantly (p<0.05) suppressed
- tumor growth inhibition, MDA-MB-231 xenograft (MDA-MB-231 xenograft; Example 11, p<0.05, FIG. 28A): significant tumor growth inhibition
- tumor growth of the DU4475 xenograft (DU4475 xenograft; 1 mg per dose three times each week i.p., p<0.05, FIGS. 19A-B): statistically significant suppression
- tumor growth of the DU4475 xenograft (DU4475 xenograft; 0.5 or 1 mg per dose three times each week, ANOVA p<0.05, FIG. 20A): statistically significant suppression
- growth of DU4475 xenograft tumors (DU4475 xenograft; Example 9, intraperitoneal, p<0.05, FIG. 25A): significantly (p<0.05) suppressed
- tumor growth inhibition, DU4475 xenograft (DU4475 xenograft; Example 11, p<0.05, FIG. 28B): significant tumor growth inhibition
- PlGF or VEGF-stimulated phosphorylation of Akt (Akt): significantly blocked
